Here are results for one molecule from publication PMC6757289, “Design and Characterization of SGK3-PROTAC1, an Isoform Specific SGK3 Kinase PROTAC Degrader” (ACS Chemical Biology, 2019).

The assay deals with T1, SGK1 (Homo sapiens, UniProt O00141).
T1 sequence (O00141 1-431): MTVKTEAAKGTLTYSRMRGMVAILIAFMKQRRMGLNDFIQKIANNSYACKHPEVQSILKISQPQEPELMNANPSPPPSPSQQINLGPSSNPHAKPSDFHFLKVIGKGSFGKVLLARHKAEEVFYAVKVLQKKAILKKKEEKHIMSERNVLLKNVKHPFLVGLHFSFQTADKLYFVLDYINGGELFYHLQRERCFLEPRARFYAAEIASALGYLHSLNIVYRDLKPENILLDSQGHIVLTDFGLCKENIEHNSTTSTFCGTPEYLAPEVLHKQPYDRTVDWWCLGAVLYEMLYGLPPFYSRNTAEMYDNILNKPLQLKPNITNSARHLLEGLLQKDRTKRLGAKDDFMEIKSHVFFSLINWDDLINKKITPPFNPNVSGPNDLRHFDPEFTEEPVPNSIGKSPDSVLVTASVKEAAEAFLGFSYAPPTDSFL
As to the kind of experiment: SGK1 degradation in JIMT1 cells, immunoblot. Type of assay: cell-based. As to conditions: JIMT1, up to 3 μM. The protocol: Figure 3 Characterization of cellular activities of SGK3-PROTAC1 and cisSGK3-PROTAC1. (A) HEK293 cells were first treated for 8 h with 0.03–3 μM SGK3-PROTAC1 and cisSGK3-PROTAC1. One hour before lysis, cells were treated with 3 μM AZD5363. Lysates were subjected to immunoblot analysis with the indicated antibodies. […] Lysates were subjected to immunoblot analysis with the indicated antibodies. (C) HEK293 cells were treated for up to 48 h with SGK3-PROTAC1 (0.3 μM), and lysates were analyzed by immunoblot analysis using the indicated antibodies. (D) HEK293 cells were treated for 24 h with SGK3-PROTAC1. Cells were washed three times with DMEM to wash out the compound, and recovery of SGK3 expression protein was analyzed by immunoblot analysis. (E–G) As in A except that CAMA-1 (E), ZR-75-1 (F), and JIMT-1 (G) cells were employed rather than HEK293 cells. […]
All cell treatments were carried out as described in figure legends, to a final DMSO concentration of 0.1% (v/v). Lysates were quantified. […] Lysate concentration was quantified by Bradford Assay, and 10 μg of lysate was loaded in the LDS sample buffer for SDS-PAGE electrophoresis on Novex 4–12% Bis–Tris gels. […] The signal was produced with near-infrared secondary antibodies and detected using a Licor Biosciences Odyssey System, and the signal was quantified in Image Studio Lite.
In general terms: In western blotting, separated proteins are transferred to a membrane and probed.

In the case of `Cc1ccc(F)c(S(=O)(=O)Nc2ccc(-c3nc(OC[C@H]4CN(CCCCCCOCCOCCOCC(=O)N[C@H](C(=O)N5C[C@H](O)C[C@H]5C(=O)NCc5ccc(-c6scnc6C)cc5)C(C)(C)C)CCO4)c4cn[nH]c4n3)cc2)c1` [SGK3-PROTAC1], the “degradation of SGK1” value is given as “failed to induce degradation of SGK1”.
